Reference: US20140221414A1 (priority 2009, published 2014)
≈ marks a conversion by molar mass, not a printed value. Like-named read-outs stand apart in the source and are kept apart here.

Legend:
[1] = oral 400 mg, healthy volunteers, cited from earlier work
[2] = physchem; format: physicochemical; details: thermodynamic from solid
Source text: Another embodiment relates to various methods for screening and analyzing methods and preparations that are intended to enhance the dissolution of poorly soluble drugs. These analysis methods include dissolution studies, saturation solubility studies, wettability studies, permeation studies, X-ray diffraction studies etc.

[3] = system: MDCK (Mardin Darby Canine Kidney Cells) cells; test: Permeability study using MDCK cells in transwell plates; format: in vitro ADME; details: 10 μmolar apical, 37° C., 2 hours
Method: Three well are to be used per sample. Plates are placed in shaking water bath at 37° C. for 2 hours. Take out 20 μl from apical and 100 μl from basolateral side for sample processing at […]. Lucifer Yellow is used as a marker to see the monolayer integrity of the cells. Propronalol is used as a permeability marker.
Relative area in apical remain 100% even after 2 hours.

[4] = system: E. Coli; test: Anti-microbial activity by cup plate / well plate method (zone of inhibition); format: cell-based; details: 200 μl per well, 37° C., 24 hrs
Method: The measurement of zone diameters estimates the susceptibility of bacteria to antimicrobial compounds.
Prepare a nutrient agar medium in distilled water and sterilize this media in autoclave at 121° C. for 15 min. Transfer this media aseptically in sterile petriplate, allow the media to solidify for few minutes. After solidification, add test micro-organism i.e. E. Coli (100 μl) in each plate and spread this culture with the help of spreader. Prepare the well in plate with the help of borer.

[5] = system: Campylobacter jejuni; details: cited from earlier work
[6] = system: Escherichia coli Enteroaggregative; details: 75 strains; cited from earlier work
[7] = system: Escherichia coli Enterotoxigenic; details: 97 strains; cited from earlier work
[8] = system: Helicobacter pylori; details: 40 strains; MIC50 instead of MIC90; cited from earlier work
[9] = system: Salmonella species; details: 46 strains; cited from earlier work
[10] = system: Shigella species; details: 36 strains; cited from earlier work
[11] = system: Vibrio cholerae; details: 403 strains; cited from earlier work
[12] = system: Yersinia enterocolitica; details: 74 strains; cited from earlier work
[13] = system: Other; details: 21 strains; cited from earlier work

## CO[C@H]1/C=C/O[C@@]2(C)Oc3c(C)c(O)c4c(O)c(c5c(nc6cc(C)ccn65)c4c3C2=O)NC(=O)/C(C)=C\C=C\[C@H](C)[C@H](O)[C@@H](C)[C@@H](O)[C@@H](C)[C@H](OC(C)=O)[C@@H]1C [14C-rifaximin]
[1]; almost entirely as unchanged drug
  dose recovered in feces: approximately 97%
[1]
  dose recovered in the urine: 0.32%

## CO[C@H]1/C=C/O[C@@]2(C)Oc3c(C)c(O)c4c(O)c(c5c(nc6cc(C)ccn65)c4c3C2=O)NC(=O)/C(C)=C\C=C\[C@H](C)[C@H](O)[C@@H](C)[C@@H](O)[C@@H](C)[C@H](OC(C)=O)[C@@H]1C [rifaximin]
[2]; pH 6.8, aqueous buffer
  solubility: 10 µg/mL (≈ 12.7 µM)
[2]; water
  solubility: < 10 µg/mL
[3]
  amount found in the basolateral side of the transwell (apparent permeability): No detectable amount
[4]
  area of zone of inhibition: very negligible
[5]; 9 strains
  MIC90: 32 µg/mL (≈ 40.7 µM)
[5]; 54 strains
  MIC90: 128 µg/mL (≈ 163 µM)
[6]
  MIC90: 32 µg/mL (≈ 40.7 µM)
[7]
  MIC90: 32 µg/mL (≈ 40.7 µM)
[8]
  MIC50: 4 (MIC50) μg/ml
[9]
  MIC90: 64 µg/mL (≈ 81.4 µM)
[10]
  MIC90: 64 µg/mL (≈ 81.4 µM)
[11]
  MIC90: 4 µg/mL (≈ 5.09 µM)
[12]
  MIC90: 16 µg/mL (≈ 20.4 µM)
[13]
  MIC90: 4 µg/mL (≈ 5.09 µM)
